{"source": "patent US9539252B2", "about": "“Piperazine-substituted benzothiophene derivatives as antipsychotic agents” (OTSUKA PHARMACEUTICAL CO., LTD., priority 2011, dated 2017)", "key": {"physchem": {"experiment": "physchem", "settings": "oil or lipid, thermodynamic from solid", "method": "(§1) Each of the Example compounds was examined for the solubility in oil (sesame oil, benzyl benzoate).\n(§2) For the specific gravity of an oil, the following values were applied. • sesame oil (specific gravity: 0.914-0.921) • benzyl benzoate (specific gravity: 1.123) • (Method)\n(§3) Example compound is measured in a microtube and an oil (sesame oil, or, benzyl benzoate) in an amount to make the concentration 10 mg/0.1 ml is added. After stirring, the solubility is evaluated by visual observation. When the compound is not dissolved, the mixture is heated, and the solubility is evaluated after cooling."}, "[1]": {"experiment": "Solubility in oil (sesame oil, benzyl benzoate), visual observation", "settings": "oil or lipid, thermodynamic from solid", "method": "as §1, §2, §3"}}}
{"smiles": "O=C(Cc1ccccc1)OCN1C(=O)CCc2ccc(OCCCCN3CCN(c4cccc5sccc45)CC3)cc21", "note": "[Example 25, phenylacetic acid 7-[4-(4-benzo[b]thiophen-4-ylpiperazin-1-yl)butoxy]-2-oxo-3,4-dihydro-2H-quinolin-1-ylmethyl ester]", "values": [{"measurement": "solubility", "setting": "physchem", "value": "> 100", "unit": "mg/mL"}]}
{"smiles": "O=C(Cc1ccccc1)OCn1c(=O)ccc2ccc(OCCCCN3CCN(c4cccc5sccc45)CC3)cc21", "note": "[Example 26, phenylacetic acid 7-[4-(4-benzo[b]thiophen-4-ylpiperazin-1-yl)butoxy]-2-oxo-2H-quinolin-1-ylmethyl ester]", "values": [{"measurement": "solubility", "setting": "physchem", "value": "> 100", "unit": "mg/mL"}]}
{"smiles": "CC(C)COC(=O)OCn1c(=O)ccc2ccc(OCCCCN3CCN(c4cccc5sccc45)CC3)cc21", "note": "[Example 170, carbonic acid 7-[4-(4-benzo[b]thiophen-4-ylpiperazin-1-yl)butoxy]-2-oxo-2H-quinolin-1-ylmethyl ester isobutyl ester]", "values": [{"measurement": "solubility", "setting": "[1]; benzyl benzoate", "value": "> 100", "unit": "mg/mL"}]}
{"smiles": "CCCCCCOC(=O)OCn1c(=O)ccc2ccc(OCCCCN3CCN(c4cccc5sccc45)CC3)cc21", "note": "[Example 175, carbonic acid 7-[4-(4-benzo[b]thiophen-4-ylpiperazin-1-yl)butoxy]-2-oxo-2H-quinolin-1-ylmethyl ester hexyl ester]", "values": [{"measurement": "solubility", "setting": "[1]; benzyl benzoate", "value": "> 100", "unit": "mg/mL"}]}
{"smiles": "CCCCCCCCCOC(=O)OCn1c(=O)ccc2ccc(OCCCCN3CCN(c4cccc5sccc45)CC3)cc21", "note": "[Example 177, carbonic acid 7-[4-(4-benzo[b]thiophen-4-ylpiperazin-1-yl)butoxy]-2-oxo-2H-quinolin-1-ylmethyl ester nonyl ester]", "values": [{"measurement": "solubility", "setting": "[1]; benzyl benzoate", "value": "> 100", "unit": "mg/mL"}, {"measurement": "solubility", "setting": "[1]; sesame oil", "value": "> 100", "unit": "mg/mL"}]}
{"smiles": "CCCCCCCCCCCCCCOC(=O)OCn1c(=O)ccc2ccc(OCCCCN3CCN(c4cccc5sccc45)CC3)cc21", "note": "[Example 179, carbonic acid 7-[4-(4-benzo[b]thiophen-4-ylpiperazin-1-yl)butoxy]-2-oxo-2H-quinolin-1-ylmethyl ester tetradecyl ester]", "values": [{"measurement": "solubility", "setting": "[1]; benzyl benzoate", "value": "> 100", "unit": "mg/mL"}, {"measurement": "solubility", "setting": "[1]; sesame oil", "value": "> 100", "unit": "mg/mL"}]}
{"smiles": "CCCCCCCCCCCCCCCCOC(=O)OCn1c(=O)ccc2ccc(OCCCCN3CCN(c4cccc5sccc45)CC3)cc21", "note": "[Example 180, carbonic acid 7-[4-(4-benzo[b]thiophen-4-ylpiperazin-1-yl)butoxy]-2-oxo-2H-quinolin-1-ylmethyl ester hexadecyl ester]", "values": [{"measurement": "solubility", "setting": "[1]; benzyl benzoate", "value": "> 100", "unit": "mg/mL"}, {"measurement": "solubility", "setting": "[1]; sesame oil", "value": "> 100", "unit": "mg/mL"}]}
{"smiles": "CCCCCCCCCCCC(=O)OCOc1ccc2ccc(OCCCCN3CCN(c4cccc5sccc45)CC3)cc2n1", "note": "[Example 371, 7-[4-(4-benzo[b]thiophen-4-yl-piperazin-1-yl)-butoxy]-quinolin-2-yloxymethyl dodecanoate]", "values": [{"measurement": "solubility", "setting": "[1]; benzyl benzoate", "value": "> 100", "unit": "mg/mL"}]}
{"smiles": "O=C(OCOc1ccc2ccc(OCCCCN3CCN(c4cccc5sccc45)CC3)cc2n1)OC1CCCCC1", "note": "[Example 372, 7-[4-(4-benzo[b]thiophen-4-yl-piperazin-1-yl)-butoxy]-quinolin-2-yloxymethyl cyclohexyl carbonate]", "values": [{"measurement": "solubility", "setting": "[1]; benzyl benzoate", "value": "> 100", "unit": "mg/mL"}]}
{"smiles": "CCCCCCOC(=O)OCOc1ccc2ccc(OCCCCN3CCN(c4cccc5sccc45)CC3)cc2n1", "note": "[Example 373, 7-[4-(4-benzo[b]thiophen-4-yl-piperazin-1-yl)-butoxy]-quinolin-2-yloxymethylhexyl carbonate]", "values": [{"measurement": "solubility", "setting": "[1]; benzyl benzoate", "value": "> 100", "unit": "mg/mL"}, {"measurement": "solubility", "setting": "[1]; sesame oil", "value": "> 100", "unit": "mg/mL"}]}
{"smiles": "CCCCCCCCCCCC(=O)Oc1ccc2ccc(OCCCCN3CCN(c4cccc5sccc45)CC3)cc2n1", "note": "[Example 379, 7-[4-(4-benzo[b]thiophen-4-yl-piperazin-1-yl)-butoxy]-quinolin-2-yl dodecanoate]", "values": [{"measurement": "solubility", "setting": "[1]; benzyl benzoate", "value": "> 100", "unit": "mg/mL"}, {"measurement": "solubility", "setting": "[1]; sesame oil", "value": "> 100", "unit": "mg/mL"}]}
{"smiles": "O=C(Oc1ccc2ccc(OCCCCN3CCN(c4cccc5sccc45)CC3)cc2n1)C1CCCCC1", "note": "[Example 380, 7-[4-(4-benzo[b]thiophen-4-yl-piperazin-1-yl)-butoxy]-quinolin-2-yl cyclohexanecarboxylate]", "values": [{"measurement": "solubility", "setting": "[1]; benzyl benzoate", "value": "> 100", "unit": "mg/mL"}, {"measurement": "solubility", "setting": "[1]; sesame oil", "value": "> 100", "unit": "mg/mL"}]}
{"smiles": "CCCCCCOC(=O)Oc1ccc2ccc(OCCCCN3CCN(c4cccc5sccc45)CC3)cc2n1", "note": "[Example 381, 7-[4-(4-benzo[b]thiophen-4-yl-piperazin-1-yl)-butoxy]-quinolin-2-yl hexyl carbonate]", "values": [{"measurement": "solubility", "setting": "[1]; benzyl benzoate", "value": "> 100", "unit": "mg/mL"}, {"measurement": "solubility", "setting": "[1]; sesame oil", "value": "> 100", "unit": "mg/mL"}]}
{"smiles": "CCN(CC)C(=O)Oc1ccc2ccc(OCCCCN3CCN(c4cccc5sccc45)CC3)cc2n1", "note": "[Example 382, 7-[4-(4-benzo[b]thiophen-4-yl-piperazin-1-yl)-butoxy]-quinolin-2-yl diethylcarbamate]", "values": [{"measurement": "solubility", "setting": "[1]; benzyl benzoate", "value": "> 100", "unit": "mg/mL"}]}
{"smiles": "CCCCCCCCOC(=O)OCn1c(=O)ccc2ccc(OCCCCN3CCN(c4cccc5sccc45)CC3)cc21", "note": "[Example 384, (7-(4-(4-(benzo[b]thiophen-4-yl)piperazin-1-yl)butoxy)-2-oxoquinolin-1(2H)-yl)methyl octyl carbonate]", "values": [{"measurement": "solubility", "setting": "[1]; benzyl benzoate", "value": "> 100", "unit": "mg/mL"}, {"measurement": "solubility", "setting": "[1]; sesame oil", "value": "> 100", "unit": "mg/mL"}]}
